Assay results published in patent US10011607B2, “Ethynyl derivatives” (Hoffmann-La Roche Inc., priority 2015, dated 2018).

Target: human mGlu4 receptor (Homo sapiens (Human), UniProt Q14833)
Assay: Ca2+ mobilization in vitro assay on recombinant human mGlu4 expressed in HEK293 cells (PAM)
Type: cell-based
Conditions: for Emax: HEK293, maximal response in % of maximal stimulatory effect of saturating L-AP4, read-out: Eff. (%); for EC50: HEK293 cells, human mGlu4, in presence of EC20 of L-AP4, read-out: EC50 (nM) mGlu4PAM
Excerpt: FIG. 1: Illustrates the experimental outline for mGlu4 PAM Ca^2+ mobilization screening assay and the determination of EC50 and % Emax values. […] A depression of the signal observed after addition of the EC20 concentration of L-AP4 was indicative of an inhibitory activity of the test compound.
Determination of EC50 Values Using a Ca2+ Mobilization In Vitro Assay on Recombinant Human mGlu4 Expressed in HEK293 Cells:
A monoclonal HEK-293 cell line stably transfected with a cDNA encoding for the human mGlu4 receptor was generated; for the work with mGlu4 Positive Allosteric Modulators (PAMs), a cell line with low receptor expression levels and low constitutive receptor activity was selected to allow the differentiation of agonistic versus PAM activity. Cells were cultured according to standard protocols (Freshney, 2000) in Dulbecco's Modified Eagle Medium with high glucose supplemented with 1 mM glutamine, 10% (vol/vol) heat-inactivated bovine calf serum, Penicillin/Streptomycin, 50 μg/ml hygromycin and 15 μg/ml blasticidin (all cell culture reagents and antibiotics from Invitrogen, Basel, Switzerland).
About 24 hrs before an experiment, 5×10^4 cells/well were seeded in poly-D-lysine coated, black/clear-bottomed 96-well plates. The cells were loaded with 2.5 μM Fluo-4AM in loading buffer (1×HBSS, 20 mM HEPES) for 1 hr at 37° C. and washed five times with loading buffer. The cells were transferred into a Functional Drug Screening System 7000 (Hamamatsu, Paris, France), and 11 half logarithmic serial dilutions of test compound at 37° C. were added and the cells were incubated for 10-30 min. with on-line recording of fluorescence. Following this pre-incubation step, the agonist (2S)-2-amino-4-phosphonobutanoic acid (L-AP4) was added to the cells at a concentration corresponding to EC20 with on-line recording of fluorescence; in order to account for day-to-day variations in the responsiveness of cells, the EC20 of L-AP4 was determined immediately ahead of each experiment by recording of a full dose-response curve of L-AP4.
Responses were measured as peak increase in fluorescence minus basal (i.e. fluorescence without addition of L-AP4), normalized to the maximal stimulatory effect obtained with saturating concentrations of L-AP4. Graphs were plotted with the % maximal stimulatory using XLfit, a curve fitting program that iteratively plots the data using Levenburg Marquardt algorithm. The single site competition analysis equation used was y=A+((B−A)/(1+((x/C)D))), where y is the % maximal stimulatory effect, A is the minimum y, B is the maximum y, C is the EC50, x is the log 10 of the concentration of the competing compound and D is the slope of the curve (the Hill Coefficient). From these curves the EC50 (drug concentration at which 50% of the maximal receptor activation was achieved), the Hill coefficient as well as the maximal response in % of the maximal stimulatory effect obtained with saturating concentrations of L-AP4 were calculated (see FIG. 1).

Chain of human mGlu4 receptor (Q14833 33-912): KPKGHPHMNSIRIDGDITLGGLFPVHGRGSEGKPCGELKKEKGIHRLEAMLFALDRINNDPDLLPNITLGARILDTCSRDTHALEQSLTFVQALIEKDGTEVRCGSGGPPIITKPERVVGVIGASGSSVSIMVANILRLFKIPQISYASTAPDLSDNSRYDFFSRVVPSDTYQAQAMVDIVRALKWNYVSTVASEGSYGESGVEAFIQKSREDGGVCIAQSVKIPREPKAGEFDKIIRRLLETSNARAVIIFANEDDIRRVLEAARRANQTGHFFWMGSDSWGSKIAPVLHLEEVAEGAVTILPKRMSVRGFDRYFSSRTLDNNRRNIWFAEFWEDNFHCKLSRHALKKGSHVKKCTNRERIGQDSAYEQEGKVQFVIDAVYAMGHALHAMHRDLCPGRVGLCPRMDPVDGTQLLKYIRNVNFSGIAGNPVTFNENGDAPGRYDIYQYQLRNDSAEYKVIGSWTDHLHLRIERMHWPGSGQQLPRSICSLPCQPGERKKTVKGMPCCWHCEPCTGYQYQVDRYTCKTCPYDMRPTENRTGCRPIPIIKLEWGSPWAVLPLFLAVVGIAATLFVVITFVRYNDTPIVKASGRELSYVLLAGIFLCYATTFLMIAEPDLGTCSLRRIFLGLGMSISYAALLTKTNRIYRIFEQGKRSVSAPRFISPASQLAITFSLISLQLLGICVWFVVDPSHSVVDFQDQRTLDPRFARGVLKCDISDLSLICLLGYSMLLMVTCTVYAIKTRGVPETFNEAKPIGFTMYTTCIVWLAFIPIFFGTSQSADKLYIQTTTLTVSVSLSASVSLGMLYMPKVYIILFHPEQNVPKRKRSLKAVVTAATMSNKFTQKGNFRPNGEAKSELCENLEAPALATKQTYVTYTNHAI

SMILES	Emax [%]	EC50 [nM]
Cc1cccc(CN2CCN3C(=O)N(c4c(F)cc(C#Cc5ccccc5)cc4F)C(=O)CC3(C)C2=O)c1 (racemic) [Example 83, (9aRS)-7-[2,6-difluoro-4-(2-phenylethynyl)phenyl]-9a-methyl-2-(m-tolylmethyl)-4,9-dihydro-3H-pyrazino[1,2-c]pyrimidine-1,6,8-trione]	79	173
COC[C@@]12CC(=O)N(c3c(F)cc(C#Cc4ccccc4)cc3F)C(=O)N1CCN(c1cnn(C)c1)C2=O [Example 105, (9aR)-7-[2,6-difluoro-4-(2-phenylethynyl)phenyl]-9a-(methoxymethyl)-2-(1-methylpyrazol-4-yl)-4,9-dihydro-3H-pyrazino[1,2-c]pyrimidine-1,6,8-trione]	144	61
CC12CC(=O)N(c3c(F)cc(C#Cc4ccccc4)cc3F)C(=O)N1CCN(c1ccncc1)C2=O (racemic) [Example 8, (9aRS)-7-[2,6-difluoro-4-(2-phenylethynyl)phenyl]-9a-methyl-2-(4-pyridyl)-4,9-dihydro-3H-pyrazino[1,2-c]pyrimidine-1,6,8-trione]	118	129
C[C@@]12CC(=O)N(c3c(F)cc(C#Cc4ccccc4)cc3F)C(=O)N1CCN(c1ccncc1)C2=O [Example 9, (9aS)-7-[2,6-difluoro-4-(2-phenylethynyl)phenyl]-9a-methyl-2-(4-pyridyl)-4,9-dihydro-3H-pyrazino[1,2-c]pyrimidine-1,6,8-trione]	85	29
Cc1ccnc(N2CCN3C(=O)N(c4c(F)cc(C#Cc5ccccc5)cc4F)C(=O)C[C@@]3(C)C2=O)c1 [Example 13, (9aS)-7-[2,6-difluoro-4-(2-phenylethynyl)phenyl]-9a-methyl-2-(4-methyl-2-pyridyl)-4,9-dihydro-3H-pyrazino[1,2-c]pyrimidine-1,6,8-trione]	148	131
Cc1nc(N2CCN3C(=O)N(c4c(F)cc(C#Cc5ccccc5)cc4F)C(=O)C[C@@]3(C)C2=O)cn1CC(F)(F)F [Example 61, (9aS)-7-[2,6-difluoro-4-(2-phenylethynyl)phenyl]-9a-methyl-2-[2-methyl-1-(2,2,2-trifluoroethyl)imidazol-4-yl]-4,9-dihydro-3H-pyrazino[1,2-c]pyrimidine-1,6,8-trione]	172	272
CC12CC(=O)N(c3c(F)cc(C#Cc4ccccc4)cc3F)C(=O)N1CCN(c1cnccn1)C2=O (racemic) [Example 32, (9aRS)-7-[2,6-difluoro-4-(2-phenylethynyl)phenyl]-9a-methyl-2-pyrazin-2-yl-4,9-dihydro-3H-pyrazino[1,2-c]pyrimidine-1,6,8-trione]	112	88
Cc1nccc(N2CCN3C(=O)N(c4c(F)cc(C#Cc5ccccc5)cc4F)C(=O)C[C@@]3(C)C2=O)n1 [Example 31, (9aS)-7-[2,6-difluoro-4-(2-phenylethynyl)phenyl]-9a-methyl-2-(2-methylpyrimidin-4-yl)-4,9-dihydro-3H-pyrazino[1,2-c]pyrimidine-1,6,8-trione]	91	88
Cc1ccc(N2CCN3C(=O)N(c4c(F)cc(C#Cc5ccccc5)cc4F)C(=O)CC3(C)C2=O)cn1 (racemic) [Example 16, (9aRS)-7-[2,6-difluoro-4-(2-phenylethynyl)phenyl]-9a-methyl-2-(6-methyl-3-pyridyl)-4,9-dihydro-3H-pyrazino[1,2-c]pyrimidine-1,6,8-trione]	125	298
C[C@@]12CC(=O)N(c3c(F)cc(C#Cc4ccccc4)cc3F)C(=O)N1CCN(c1ccncn1)C2=O [Example 27, (9aS)-7-[2,6-difluoro-4-(2-phenylethynyl)phenyl]-9a-methyl-2-pyrimidin-4-yl-4,9-dihydro-3H-pyrazino[1,2-c]pyrimidine-1,6,8-trione]	136	39
O=C1C2CC(=O)N(c3c(F)cc(C#Cc4ccccc4)cc3F)C(=O)N2CCN1c1ccncn1 (racemic) [Example 2, (9aRS)-7-[2,6-difluoro-4-(2-phenylethynyl)phenyl]-2-pyrimidin-4-yl-3,4,9,9a-tetrahydropyrazino[1,2-c]pyrimidine-1,6,8-trione]	88	85
Cc1cccc(N2CCN3C(=O)N(c4c(F)cc(C#Cc5ccccc5)cc4F)C(=O)CC3(C)C2=O)n1 (racemic) [Example 10, (9aRS)-7-[2,6-difluoro-4-(2-phenylethynyl)phenyl]-9a-methyl-2-(6-methyl-2-pyridyl)-4,9-dihydro-3H-pyrazino[1,2-c]pyrimidine-1,6,8-trione]	127	163
Cc1cncc(C)c1N1CCN2C(=O)N(c3c(F)cc(C#Cc4ccccc4)cc3F)C(=O)C[C@@]2(C)C1=O [Example 17, (9aS)-7-[2,6-difluoro-4-(2-phenylethynyl)phenyl]-2-(3,5-dimethyl-4-pyridyl)-9a-methyl-4,9-dihydro-3H-pyrazino[1,2-c]pyrimidine-1,6,8-trione]	136	201
CCn1cc(N2CCN3C(=O)N(c4c(F)cc(C#Cc5ccccc5)cc4F)C(=O)C[C@@]3(C)C2=O)cn1 [Example 69, (9aS)-7-[2,6-difluoro-4-(2-phenylethynyl)phenyl]-2-(1-ethylpyrazol-4-yl)-9a-methyl-4,9-dihydro-3H-pyrazino[1,2-c]pyrimidine-1,6,8-trione]	184	151
CC12CC(=O)N(c3c(F)cc(C#Cc4ccccc4)cc3F)C(=O)N1CCN(Cc1cccnc1)C2=O (racemic) [Example 93, (9aRS)-7-[2,6-difluoro-4-(2-phenylethynyl)phenyl]-9a-methyl-2-(3-pyridylmethyl)-4,9-dihydro-3H-pyrazino[1,2-c]pyrimidine-1,6,8-trione]	90	217
Cn1ccc(N2CCN3C(=O)N(c4c(F)cc(C#Cc5ccccc5)cc4F)C(=O)CC3(C)C2=O)n1 (racemic) [Example 62, (9aRS)-7-[2,6-difluoro-4-(2-phenylethynyl)phenyl]-9a-methyl-2-(1-methylpyrazol-3-yl)-4,9-dihydro-3H-pyrazino[1,2-c]pyrimidine-1,6,8-trione]	112	149
Cn1cc(N2CCN3C(=O)N(c4c(F)cc(C#Cc5ccccc5)cc4F)C(=O)C[C@@]3(C)C2=O)ccc1=O [Example 24, (9aS)-7-[2,6-difluoro-4-(2-phenylethynyl)phenyl]-9a-methyl-2-(1-methyl-6-oxo-3-pyridyl)-4,9-dihydro-3H-pyrazino[1,2-c]pyrimidine-1,6,8-trione]	103	128
CC12CC(=O)N(c3c(F)cc(C#Cc4ccccc4)cc3F)C(=O)N1CCN(c1ccccn1)C2=O (racemic) [Example 4, (9aRS)-7-[2,6-difluoro-4-(2-phenylethynyl)phenyl]-9a-methyl-2-(2-pyridyl)-4,9-dihydro-3H-pyrazino[1,2-c]pyrimidine-1,6,8-trione]	110	119
Cn1ccc(N2CCN3C(=O)N(c4c(F)cc(C#Cc5ccccc5)cc4F)C(=O)C[C@@]3(C)C2=O)n1 [Example 63, (9aS)-7-[2,6-difluoro-4-(2-phenylethynyl)phenyl]-9a-methyl-2-(1-methylpyrazol-3-yl)-4,9-dihydro-3H-pyrazino[1,2-c]pyrimidine-1,6,8-trione]	136	165
COCC12CC(=O)N(c3c(F)cc(C#Cc4ccccc4)cc3F)C(=O)N1CCN(c1cnn(C)c1)C2=O (racemic) [Example 104, (9aRS)-7-[2,6-difluoro-4-(2-phenylethynyl)phenyl]-9a-(methoxymethyl)-2-(1-methylpyrazol-4-yl)-4,9-dihydro-3H-pyrazino[1,2-c]pyrimidine-1,6,8-trione]	148	273
Cc1ccc(N2CCN3C(=O)N(c4c(F)cc(C#Cc5ccccc5)cc4F)C(=O)CC3(C)C2=O)nn1 (racemic) [Example 48, (9aRS)-7-[2,6-difluoro-4-(2-phenylethynyl)phenyl]-9a-methyl-2-(6-methylpyridazin-3-yl)-4,9-dihydro-3H-pyrazino[1,2-c]pyrimidine-1,6,8-trione]	120	198
